# According to publication PMC12266748, “A Xanthine Derivative With Novel Heat Shock Protein 90‐Alpha Inhibitory and Senolytic Properties” (Aging Cell, 2025):
# Like-named read-outs stand apart in the source and are kept apart here.
# Tests used:
# HSP90α [1] = molecular target: T1, HSP90α (Homo sapiens, UniProt P07900); assay: HSP90 N-Terminal Domain Assay Kit, fluorescence polarization competition with FITC-Geldanamycin; format: binding; parameters: purchased BPS Bioscience 50293; settings: dose-response 1 pM to 10 μM, n = 3, extrapolated with GraphPad Prism; read-out: HSP90α inhibition IC50
# Method: HSP90‐directed inhibitory activity was assessed employing the HSP90 N‐Terminal Domain Assay Kit (BPS Bioscience) according to the manufacturer's instructions. The fluorescence intensity was measured with a multiplate reader (Victor Nivo‐Perkin Elmer). The IC50 was calculated by analyzing the data using GraphPad Prism 10 software.
# HSP90 inhibition activity assay. […] […] […] Data are the percentage of residual enzyme activity relative to the solvent (DMSO). The IC50s were calculated by analyzing the data using GraphPad Prism 10 software.
# HSP90α [2] = molecular target: T1, HSP90α; assay: Cellular thermal shift assay (CETSA) on cellular lysates, HSP90α; settings: 46°C, compound 0.5 mM
# Method: Cellular Thermal Shift Assay (CETSA). […] Briefly, the cellular extract was lysed in RIPA buffer (10 mM Tris-HCl pH 7.4, 250 mM NaCl, 1% NP40/IGEPAL, 1% DOC, 0.01% SDS, 0.01% Glycerol, supplemented with protease/phosphatase inhibitor, PI/PhI mix and 2 mM DTT) and protein concentration was determined by a BCA kit (Pierce, Life Technologies, TFS, Waltham, MA, USA). Samples were homogenized by 3 cycles of freeze-thawing using liquid nitrogen and centrifuged at 13000 rpm at 4 °C for 30 min to separate the soluble fraction from the debris.
# Following the supplier's recommendations, samples were loaded into the proper cartridge (12- 230 kDa Wes/Jess Separation Modules, ProteinSimple, Biotechne, Minneapolis, MN, USA). HSP90α (1:50, MsMAb, Abcam), HSP90β (1:50, RbMAb, Abcam), GRP94 (1:50, RbMAb, Abcam), TRAP1 (1:50, MsMAb, Abcam), α-Tubulin (1:500, MsMAb, Abcam), and β-Actin (1:500, RbMAb, Abcam) were used as primary antibodies. Secondary antibodies were Anti-Mouse Secondary HRP and Anti-Rabbit Secondary HRP (ProteinSimple, Biotechne, Minneapolis, MN, USA).
# IMR90 cells [3] = assay: In vitro screening of the 14 in silico-selected compounds, surviving cell count, proliferating vs senescent IMR90; format: cell-based, Homo sapiens; settings: 48 h; for effect on non-senescent IMR90 cells: PD15-PD17, 1 μM; for senolytic activity on senescent IMR90 cells: PD19-PD21, 1 μM
# From the text: (§1) IMR90 and WI38 lung fibroblasts were purchased from ECACC‐Merck. Human bone marrow (BM)‐derived mesenchymal stromal cells (MSCs) were purchased from Lonza. Human umbilical vein endothelial cells (HUVECs) are primary cells obtained from a pool of donors purchased from Clonetics (Lonza). Murine ear fibroblasts (MearFs) were obtained from C57BL/6J mice maintained in the INRCA “Specific Pathogen Free” (SPF) animal facility. MCF7 breast cancer cells were purchased from ATCC. For dose–response curves, IMR90 and WI38 were induced to senescence through replicative passages; MSCs, HUVECs, and MearFs senescence was induced with Doxorubicin; MCF7 senescence was induced with 4‐Hydroxytamoxifen (Lee et al. [2014]). The EC50 was calculated using GraphPad Prism 10 software. All treatment specifications are reported in the extended section.
# (§2) Cell culture and treatment. IMR90 cells (Homo sapiens, fetal lung, fibroblast) and WI38 cells (Homo sapiens, fetal lung, fibroblast) were purchased from ECACC-Merck (Merck, Darmstadt, Germany) and cultured in MEM medium (Euroclone, Milano, Italy) supplemented with 1% L-Glutamine (Euroclone, Milano, Italy), 1% Penicillin-Streptomycin (Euroclone, Milano, Italy), and 10% Fetal Bovine Serum (FBS, Euroclone, Milano, Italy), at 37°C, 5% CO2. IMR90 cells with a population doubling (PD) from PD15 to PD23 were used; cells were considered incrementally senescent from passage PD19 to passage PD23. WI38 cells were used from PD26 to PD53. Cells were considered incrementally senescent from passage PD49 to passage PD53. For the compounds in vitro screening, IMR90 cells with passages from PD15 to PD23 were tested at increasing concentrations of 0.5 μM, 1 μM, 10 μM, and 25 μM over 24 and 48 h to evaluate the compounds' efficacy and cytotoxicity compared to the Vehicle (DMSO ≤ 0.1%). Cells were counted manually, in triplicate, using Trypan blue reagent (Euroclone) and disposable Bürker chambers. […] K5 dose-response proliferation curves were performed with compound K5 (Molport, SIA, Riga, Latvia) in concentrations 0.1, 0.5, 1, 5, 10, 50, 100, and 200 μM for 48 h. Cells were counted using a Trypan blue reagent and EVAplus cell counter. The EC50s were calculated by analyzing the data using GraphPad Prism 10 software.
# IMR90 cells [4] = assay: Dose-response curves on proliferating and replicative senescent IMR90 (Trypan blue cell count); format: cell-based
# From the text: as §1, §2
# MCF7 cell line (ATCC; HTB-22, Homo sapiens, breast cancer) was purchased from ATCC; cells were grown in MEM medium (Corning, New York, USA, #15-010-CVR) supplemented with 10% FBS (Gibco, Invitrogen, Carlsbad, CA, USA, #10270106), 1% glutamine (Corning #25005-CI), 1% penicillin and streptomycin (Corning #30002-CI). Cells were incubated at 37 °C with 5% CO2. Senescent status induction: MCF7 were plated 24 h before the treatment with 4-Hydroxytamoxifen (TAM) 10 μM to induce the senescence described by (Lee et al. 2014). Control cultures were treated with equal volumes of 75% ethanol as the vehicle. The treatment with TAM lasts 96 h, after which the cells have been washed and treated with the senolytic drugs K5 10 µM for another 96 h. The treatment with the senolytic compounds has been renewed at 48 h. Cell mortality and vitality curves after treatment with K5 (10 μM, orange) or Vehicle (DMSO, grey) were monitored using the Incucyte live-cell Analysis system (Sartorius, Goettingen, Germany). The estimated Senolytic index (SI) was calculated as the ratio between the EC50 in proliferating cells and the EC50 in senescent cells, extrapolated using GraphPad Prism 10 software.
# IMR90 cells [5] = assay: as above; format: cell-based; settings: proliferating IMR90 (PD14), 48 h
# IMR90 cells [6] = assay: Immunofluorescence of Cytochrome C / mitochondria colocalization in senescent IMR90; format: cell-based, Homo sapiens; settings: senescent IMR90 (PD21), 48 h, K5 25 μM, Dasatinib 1 μM; Vehicle OR = 0.913
# Method: (§3) Treated/untreated senescent IMR90 and MCF7 cells were fixed, permeabilized, and stained following suppliers' recommendations. Images were acquired using an Olympus IX83 research inverted microscope (IF) and a phase microscopy Nikon ECLIPSE Ei R (IHC) at 40× MAG.
# (§4) Immunofluorescence staining. Treated/untreated IMR90 and MCF7 cells were cultured in LabTek II chamber slides (Nunc, Biosigma). At the final time point, cells were stained with 500 nM MitoTracker Orange (Thermo Fisher Scientific) for 30 min at 37°C and then fixed in 4% PFA (Merck) for 10 min, RT, and permeabilized with 0.1% Triton solution (Merck) for 30 min at RT. Samples were blocked in 5% BSA for 90 min, incubated overnight at 4°C with primary antibody against Cytochrome C (1:50, RbMAb, Abcam), and 1h at RT with secondary antibody Alexa Fluor 488 goat anti-Rb (1:200, Thermo Fisher Scientific). Nuclei were stained with DAPI (Cell Signaling) for 10 min at RT, and ProLong Glass Antifade Mountant (Thermo Fisher Scientific) was used to seal coverslips. Images were acquired using an Olympus IX83 research inverted microscope at 40X magnifications.
# MCF7 cells = assay: Immunofluorescence of Cytochrome C / mitochondria colocalization in senescent MCF7; format: cell-based, Homo sapiens; settings: MCF7, TAM 10 µM 96 h, then 72 h K5 10 µM or Dasatinib 1 µM
# Method: as §3, §4
smiles,measurement,setting,value
"Cn1c(=O)c2c(ncn2C)n(C)c1=O [Caffeine, reference compound]",IC50,HSP90α [1],> 300000 nM
same,interaction / stabilization of HSP90α in CETSA,HSP90α [2],does not interact with the protein
CO[C@H]1/C=C\C=C(/C)C(=O)NC2=CC(=O)C(NCCN(C)C)=C(C[C@@H](C)C[C@H](OC)[C@H](O)[C@@H](C)/C=C(\C)[C@@H]1OC(N)=O)C2=O [Compound 17-DMAG],effect on non-senescent IMR90 cells,IMR90 cells [3],cytotoxic effects also visible in non
same,"Senolytic evidence (no, partly/yes)","IMR90 cells [4]; IMR90, Replicative/passages",Yes
same,EC50,"IMR90 cells [4]; IMR90, Replicative/passages, read-out: EC50 senescent cells",85 nM
same,EC50,"IMR90 cells [4]; IMR90, read-out: EC50 proliferating cells",780 nM
same,EC50,IMR90 cells [5],785 nM
"Cc1[nH]nc(-c2ccc(O)cc2O)c1Oc1ccc(F)cc1 [Compound B2, 4-[4-(4-fluorophenoxy)-5-methyl-1H-pyrazol-3-yl]benzene-1,3-diol]",senolytic activity on senescent IMR90 cells,IMR90 cells [3],evident senolytic activity
"O=S(=O)(NCc1ccc(-c2ccc(F)cc2F)o1)c1ccccc1 [Compound C2, N-{[5-(2,4-difluorophenyl)furan-2-yl]methyl}benzenesulfonamide]",senolytic activity on senescent IMR90 cells,IMR90 cells [3],evident senolytic activity
"Cc1nc(Nc2ncc(C(=O)Nc3c(C)cccc3Cl)s2)cc(N2CCN(CCO)CC2)n1 [Dasatinib, reference compound]","Cytochrome C / mitochondria colocalization, Overlap R (OR)",IMR90 cells [6],0.639
same,"Cytochrome C / mitochondria colocalization, Overlap R (OR)",MCF7 cells; TAM + Vehicle OR = 0.978,0.956
same,"Cytochrome C / mitochondria colocalization, Pearson's Rr (PRr)",MCF7 cells; TAM + Vehicle PRr = 0.961,0.928
CC(C)c1cc(-c2n[nH]c(=O)n2-c2ccc3c(ccn3C)c2)c(O)cc1O [Ganetespib],effect on non-senescent IMR90 cells,IMR90 cells [3],cytotoxic effects also visible in non
same,EC50,"IMR90 cells [4]; Homo sapiens, IMR-90, IMR90, Replicative/passages, read-out: EC50 senescent cells",87 nM
same,EC50,"IMR90 cells [4]; Homo sapiens, IMR-90, IMR90, read-out: EC50 proliferating cells",1000 nM
same,"Senolytic evidence (no, partly/yes)","IMR90 cells [4]; IMR90, Replicative/passages",Yes
same,EC50,"IMR90 cells [5]; Homo sapiens, IMR-90",1040 nM
